US20240299554A1, “PRODRUGS WITH 1-(DISULFANYL)ALKYLOXY-CARBONYL UNITS” (PHARMACYTICS B.V., priority 2021, published 2024)

Columns and labels:
[1] = In vitro treatment of conjugates with glutathione, release of parent drug followed by LC-MS at 254 nm; type: in vitro ADME; conditions: for formation of parent drug on in vitro treatment with glutathione: glutathione 5 eq., phosphate buffer pH=7.6, 37° C. (for 102); for fate of glutathione adduct formed during glutathione treatment: adduct formed in situ from the conjugate
Excerpt: FIGS. 1A and 1B are graphs showing the release of the drug Cinacalcet after an in vitro treatment of Cinacalcet conjugate 102 (not according to the invention) with glutathione. […] FIG. 1B represent the concentration of Cinacalcet conjugate 102 and Cinacalcet versus time. The presence of the compounds was followed at 254 nm by LC-MS.
FIGS. 3A and 3B are graphs showing the release of the drug Cinacalcet after an in vitro treatment of Cinacalcet conjugate 60 (according to the invention) with glutathione. […] FIG. 3B represent the concentration of Cinacalcet conjugate 60 and Cinacalcet versus time. The presence of the compounds was followed at 254 nm by LC-MS.
The results are shown in FIGS. 1A and B. In FIG. 1A is shown the disappearance of conjugate 102 over time after treatment with glutathione, the formation of Cinacalcet and the appearance and partial disappearance of an intermediate (HS-Et-Cinacalcet) and a glutathione adduct (GSS—Et-Cinacalcet)—see below.

[2] = Oral bioavailability of conjugates in female Beagle dogs (AUC of parent drug); type: in vivo; conditions: for Δ AUC (increase of AUC of parent drug derived from conjugate compared to parent drug as such): female Beagle dogs, single oral dose 7.5 or 15 μmol/kg by gavage, 24 h sampling, Table 1a; for generation of parent drug after oral administration: oral administration to beagle dogs
Procedure: Relative and absolute bioavailability may be determined in different animal models and according to different protocols. The following protocol is typical for determining bioavailability in female Beagle dogs and was used in the present invention. The animals were deprived from food over a time period of 8 h prior to administration of the compounds according to the present invention and over a time period of 2 h after administration of the compounds according to the present invention. Water was supplied without limitation. On the study day, the animals received the compounds according to the present invention, at a single dose of 7.5 or 15 μmol/kg, by oral gavage, formulated in mixtures of propylene glycol, ethanol and 0.9% NaCl+5% mannitol in water. Blood samples were collected from the jugular vein on the following time points: 0.25, 0.5, 1, 2, 4, 8 and 24 hours after dosing of the compounds according to the present invention. […] Pharmacokinetic parameters were calculated from concentration versus time data using non-compartmental pharmacokinetic methods using Phoenix pharmacokinetic software. Data are compared to the parent drugs to establish improvement of its oral bioavailability by the compounds according to the present invention.

SMILES: C[C@H](c1cccc2ccccc12)N(CCCc1cccc(C(F)(F)F)c1)C(=O)OCSSCCO[C@@H]1O[C@H](CO)[C@@H](O)[C@H](O)[C@H]1O [Compound 60]
- formation of parent drug on in vitro treatment with glutathione [1]: very fast and complete formation of Cinacalcet
- Δ AUC (increase of AUC of parent drug derived from conjugate compared to parent drug as such) [2]: ++ (++ denotes a 2 to 4-fold increase of the AUC compared to the parent drug)
- generation of parent drug after oral administration [2]: readily resulted in the generation of significant amounts of cinacalcet

SMILES: CN(CC[C@@H](Oc1cccc2ccccc12)c1cccs1)C(=O)OCSSCCO[C@@H]1O[C@H](CO)[C@H](O)[C@H](O)[C@H]1O [Compound 61]
- formation of parent drug on in vitro treatment with glutathione [1]: very fast and complete formation of Duloxetine
- Δ AUC (increase of AUC of parent drug derived from conjugate compared to parent drug as such) [2]: ++ (++ denotes a 2 to 4-fold increase of the AUC compared to the parent drug)
- generation of parent drug after oral administration [2]: readily resulted in the generation of significant amounts of duloxetine

SMILES: C[C@H](c1cccc2ccccc12)N(CCCc1cccc(C(F)(F)F)c1)C(=O)OCSSCCNC(=O)O[C@@H]1O[C@H](CO)[C@@H](O)[C@H](O)[C@H]1O [Compound 90]
- Δ AUC (increase of AUC of parent drug derived from conjugate compared to parent drug as such) [2]: + (+ denotes a 1.1 to 2-fold increase of the AUC compared to parent drug)

SMILES: CCCN(COCCSSCOC(=O)N(CCCc1cccc(C(F)(F)F)c1)[C@H](C)c1cccc2ccccc12)C(=O)O[C@@H]1O[C@H](CO)[C@@H](O)[C@H](O)[C@H]1O [Compound 92a]
- Δ AUC (increase of AUC of parent drug derived from conjugate compared to parent drug as such) [2]: +++ (+++ denotes a >4-fold increase of the AUC compared to the parent drug)

SMILES: CCCN(COCCSSCOC(=O)N(CCCc1cccc(C(F)(F)F)c1)[C@H](C)c1cccc2ccccc12)C(=O)O[C@@H]1O[C@H](CF)[C@@H](O)[C@H](O)[C@H]1O [Compound 92b]
- Δ AUC (increase of AUC of parent drug derived from conjugate compared to parent drug as such) [2]: +++ (+++ denotes a >4-fold increase of the AUC compared to the parent drug)

SMILES: CCCN(COCCSSCOC(=O)N(CCCc1cccc(C(F)(F)F)c1)[C@H](C)c1cccc2ccccc12)C(=O)O[C@@H]1O[C@H](CO)[C@H](O)[C@H](O)[C@H]1O [Compound 93a]
- Δ AUC (increase of AUC of parent drug derived from conjugate compared to parent drug as such) [2]: +++ (+++ denotes a >4-fold increase of the AUC compared to the parent drug)

SMILES: C[C@H](c1cccc2ccccc12)N(CCCc1cccc(C(F)(F)F)c1)C(=O)OCCSSCCO[C@@H]1O[C@H](CO)[C@@H](O)[C@H](O)[C@H]1O [Compound 102]
- formation of parent drug on in vitro treatment with glutathione [1]: very slow and incomplete formation of Cinacalcet
- conversion of pro-drug into parent drug within 8 hours ([1]; glutathione treatment): far from being completely converted into Cinacalcet
- conversion of pro-drug into parent drug in 23 hours ([1]; glutathione treatment, 23 hours): less than half
- generation of parent drug after oral administration [2]: did not produce any detectable amount of the drug Cinacalcet

SMILES: CN(CC[C@@H](Oc1cccc2ccccc12)c1cccs1)C(=O)OCCSSCCO[C@@H]1O[C@H](CO)[C@@H](O)[C@H](O)[C@H]1O [Compound 103]
- formation of parent drug on in vitro treatment with glutathione [1]: very slow and incomplete formation of duloxetine
- conversion of pro-drug into parent drug within 8 hours ([1]; glutathione treatment): less than half
- generation of parent drug after oral administration [2]: did not produce any detectable amount of Duloxetine

SMILES: C[C@H](c1cccc2ccccc12)N(CCCc1cccc(C(F)(F)F)c1)C(=O)OCCSSC[C@H](NC(=O)CC[C@H](N)C(=O)O)C(=O)NCC(=O)O [GSS-Et-Cinacalcet]
- fate of glutathione adduct formed during glutathione treatment [1]: somewhat more stable than the mercaptoethyl carbamate

SMILES: C[C@H](c1cccc2ccccc12)N(CCCc1cccc(C(F)(F)F)c1)C(=O)OCSSC[C@H](NC(=O)CC[C@H](N)C(=O)O)C(=O)NCC(=O)O [GSS-Me-Cinacalcet]
- fate of glutathione adduct formed during glutathione treatment [1]: completely converted into Cinacalcet within one hour

SMILES: CN(CC[C@H](Oc1cccc2ccccc12)c1cccs1)C(=O)OCSSC[C@H](NC(=O)CC[C@H](N)C(=O)O)C(=O)NCC(=O)O [GSS-Me-Duloxetine]
- fate of glutathione adduct formed during glutathione treatment [1]: completely converted into Duloxetine within one hour
